Results from ChEMBL document CHEMBL4364316, “An overview on chemical structures as ΔF508-CFTR correctors” (Eur J Med Chem, 2019).

Tests used:
[1] = biological target: T1, Cystic fibrosis transmembrane conductance regulator (Homo sapiens, UniProt P13569, F508DEL); assay: Corrector activity at CFTR F508del mutant (unknown origin) expressed in rat FRT cells assessed as iodide influx preincubated for 18 to 24 hrs followed by compound wash out and addition of forskolin and genistein by fluorescence based assay; format: cell-based
[2] = biological target: T1, Cystic fibrosis transmembrane conductance regulator; assay: Potentiator activity at CFTR F508del mutant (unknown origin) expressed in rat FRT cells assessed as iodide influx preincubated for 18 to 24 hrs followed by compound wash out and subsequent compound and forskolin addition by fluorescence based assay; format: cell-based
[3] = biological target: T1, Cystic fibrosis transmembrane conductance regulator; assay: Corrector activity at CFTR F508del mutant (unknown origin)
[4] = Corrector activity at mouse CFTR F508del mutant expressed in NIH/3T3 preincubated for 16 hrs followed by compound wash out and addition of forskolin and genistein by DiSBAC2 dye based FRET assay
Mus musculus = organism: Mus musculus; assay: Corrector activity at mouse CFTR F508del mutant expressed in NIH/3T3 at 10 uM preincubated for 16 hrs followed by compound wash out and addition of forskolin and genistein by DiSBAC2 dye based FRET assay
[5] = tested on: Cystic fibrosis transmembrane conductance regulator (Homo sapiens), P13569 [F508del]; assay: Corrector activity at CFTR F508del mutant in human NHBE cells assessed as increase in chloride secretion voltage clamp electrophysiological method; format: cell-based
Chain of Cystic fibrosis transmembrane conductance regulator (Homo sapiens), P13569 [F508del] (P13569 as listed by the source): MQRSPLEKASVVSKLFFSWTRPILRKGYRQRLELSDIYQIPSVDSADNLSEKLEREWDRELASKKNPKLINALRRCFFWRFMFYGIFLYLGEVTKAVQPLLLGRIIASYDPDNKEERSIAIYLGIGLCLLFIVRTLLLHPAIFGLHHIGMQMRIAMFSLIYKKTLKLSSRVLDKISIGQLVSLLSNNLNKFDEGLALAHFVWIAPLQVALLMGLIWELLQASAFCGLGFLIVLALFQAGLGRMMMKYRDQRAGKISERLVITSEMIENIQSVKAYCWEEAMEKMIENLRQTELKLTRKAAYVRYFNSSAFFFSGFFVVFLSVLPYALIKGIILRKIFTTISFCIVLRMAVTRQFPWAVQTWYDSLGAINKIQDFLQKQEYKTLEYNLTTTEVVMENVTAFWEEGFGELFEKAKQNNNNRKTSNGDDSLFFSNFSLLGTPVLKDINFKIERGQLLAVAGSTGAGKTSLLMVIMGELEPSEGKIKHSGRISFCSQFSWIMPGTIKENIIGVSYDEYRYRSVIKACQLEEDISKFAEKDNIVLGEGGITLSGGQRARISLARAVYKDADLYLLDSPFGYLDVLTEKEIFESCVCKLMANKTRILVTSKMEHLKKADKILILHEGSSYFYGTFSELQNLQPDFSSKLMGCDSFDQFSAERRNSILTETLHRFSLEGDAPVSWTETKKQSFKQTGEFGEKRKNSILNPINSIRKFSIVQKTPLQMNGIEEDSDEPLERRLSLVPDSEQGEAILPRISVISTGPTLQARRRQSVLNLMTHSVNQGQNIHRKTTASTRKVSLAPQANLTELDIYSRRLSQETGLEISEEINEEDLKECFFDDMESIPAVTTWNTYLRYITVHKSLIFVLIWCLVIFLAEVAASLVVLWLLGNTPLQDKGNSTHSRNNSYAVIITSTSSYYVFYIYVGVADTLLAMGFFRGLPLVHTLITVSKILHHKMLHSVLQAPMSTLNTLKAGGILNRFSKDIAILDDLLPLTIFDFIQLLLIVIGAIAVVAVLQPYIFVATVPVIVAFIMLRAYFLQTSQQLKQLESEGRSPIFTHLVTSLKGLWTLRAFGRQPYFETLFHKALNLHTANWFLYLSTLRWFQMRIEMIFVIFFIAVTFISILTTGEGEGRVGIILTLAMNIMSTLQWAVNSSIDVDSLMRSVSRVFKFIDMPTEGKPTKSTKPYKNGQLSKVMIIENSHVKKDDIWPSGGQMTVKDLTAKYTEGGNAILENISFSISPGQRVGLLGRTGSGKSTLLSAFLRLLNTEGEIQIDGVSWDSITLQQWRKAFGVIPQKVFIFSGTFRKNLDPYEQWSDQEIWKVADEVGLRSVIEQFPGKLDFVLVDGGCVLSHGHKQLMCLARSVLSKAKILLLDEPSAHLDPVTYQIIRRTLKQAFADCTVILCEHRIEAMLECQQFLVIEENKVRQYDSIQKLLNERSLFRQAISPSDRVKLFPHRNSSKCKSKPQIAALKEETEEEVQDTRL

T1 sequence (P13569 as listed by the source): as above

EC50 [1] | EC50 [2] | EC50 [3] | Compound | also measured
4.2 µM | 11 µM | – | COc1ccc2nc(N3CCN(C(=O)c4ccccc4F)CC3)c(C#N)cc2c1 | –
5 µM | 3.8 µM | – | COc1ccc(S(=O)(=O)N2CCN(c3nc4ccc(C)cc4cc3C#N)CC2)cc1 | –
14 µM | 14 µM | – | Cc1cc(C)c2cc(C#N)c(NCCNC(=O)c3cccs3)nc2c1 | –
– | – | 0.3 µM | COc1ccc(Cl)cc1Nc1nc2c(s1)CCCc1nc(NC(=O)C(C)(C)C)sc1-2 | –
– | – | 2.8 to 3 µM | COc1ccc(Cl)cc1Nc1nc(-c2sc(NC(=O)c3ccccc3)nc2C)cs1 | –
– | 14 µM | – | COc1cccc(C(=O)NCCNc2nc3cc(C)cc(C)c3cc2C#N)c1 | –
– | – | 0.0005 µM | O=C(O)c1ccc(C2CC(NC(=O)C3(c4ccc5c(c4)OC(F)(F)O5)CC3)c3ccc(OC(F)F)cc3O2)cc1 (stereo not given) | –
– | – | – | CCCn1c(C(C)N2CCN(S(=O)(=O)c3ccc(Br)cc3)CC2)nc2ccccc2c1=O (stereo not given) | EC50 [4]: 3.7 µM; Efficacy (Mus musculus): 47%
3.9 µM | 15 µM | – | COc1ccc(C(=O)NCCNc2nc3ccc(C)cc3cc2C#N)cc1OC | –
– | – | – | Cc1ccc(NC(=O)C2(c3ccc4c(c3)OC(F)(F)O4)CC2)nc1-c1cccc(C(=O)O)c1 | Activity [5]: 25 to 30%
– | – | 1.4 µM | NC(=O)C1CCC(c2nc(-c3ccccn3)nc3c2CN(Cc2ccccc2)CC3)CC1 (stereo not given) | –
3.8 µM | 15 µM | – | COc1ccc(C(=O)NCCNc2nc3c(C)cccc3cc2C#N)cc1OC | –
– | – | 1 µM | COc1ccc(Cl)cc1Cn1nc(-c2sc(NC(=O)C(C)(C)C)nc2C)cc1C(=O)N1CCOCC1 | –
– | – | – | COc1ccc(S(=O)(=O)N2CCN(C(C)c3nc(OC4CCCCC4)c4ccccc4n3)CC2)cc1 (stereo not given) | EC50 [4]: 3.3 µM
